# Experimental data from patent US12116356B2, “N-heterocyclic five-membered ring-containing capsid protein assembly inhibitor, pharmaceutical composition thereof, and use thereof” (CHIA TAI TIANQING PHARMACEUTICAL GROUP CO., LTD., priority 2018, dated 2024).
# Experiments:
# [1] = In vivo pharmacokinetics (PK) study in mice; settings: ICR mice, po 30 mg/kg
# Description: ICR mice, weighing 18-20 g, were randomly divided into groups of three mice each after 3 to 5 days' acclimatization, and a series of the compounds were administered intragastrically to each group at a dose of 30 mg/kg. The test animals (ICR mice) were fasted for 12 hours before the administration and fed 4 hours after the administration. They were free to access water before and after the experiment. After the intragastric administration, about 0.1 mL of blood was collected from the orbits. Within 30 minutes after anticoagulation with EDTA-K2, the plasma was separated by centrifugation at 4° C. and 4000 rpm for 10 minutes. Immediately after collecting all plasma, it was stored at −20° C. for testing. 20 μL of the plasma sample to be tested and standard curve sample were pipetted, and then thereto was added 200 μL of an acetonitrile solution containing an internal standard (diazepam 20 mg/mL). The resulting mixture was oscillated and mixed uniformly for 5 min, and then centrifugated at 12000 rpm for 10 min. 75 μL supernatant was pipetted, and 75 μL ultrapure water was added thereto for dilution, and mixed evenly. 1 μL of the resulting solution was pipetted for LC/MS/MS determination.
# HBV DNA in HepAD38 cells = assay: In vitro cell HBV DNA inhibitory activity (anti-HBV activity) in HepAD38 cells; type: cell-based; settings: Hepatitis B virus, 144 h; anti-HBV activity in HepAD38 cells, 6 days treatment, intracellular capsid HBV DNA by qPCR; read-out: EC50
# Description: A bottle of HepG2.2.15 or HepAD38 cells in good exponential growth state was taken, washed once by adding 5 mL PBS, and then thereto was added 3 mL trypsin. After digesting at room temperature for 5 min, 2 mL trypsin was discarded, and then the sample was placed in a cell culture incubator and digested for 10 min. The cells were taken out from time to time and observed under a microscope (whether the cells were individually round and there was no adhesion between the cells). 10 mL complete medium was added to terminate the digestion. After pipetting into a single cell suspension, 10 μL of the cell suspension was taken out for cell counting with a cell counter, and then diluted with a complete medium and adjusted to a cell density of 1*10^5 cells/mL. Then the cell suspension was seeded at 1 mL/well in a 24-well plate with a multi-channel pipette (the 24-well plate was coated with 50 μg/mL Collagen I solution in advance), and cultured in a constant temperature CO2 incubator for 48 h.
# Different compounds dissolved in DMSO were subjected to two-fold gradient dilution (10 concentrations in total) with complete medium. The compound was added, and fresh medium containing the compound was used to replace the spent medium every 72 hours. The cells were treated with the compound for 6 days. After the supernatant was siphoned off, 300 μL lysate (10 mM Tris-HCl, 1 mM EDTA, and 1% NP-40) was added to each well. After lysing at room temperature for 10 min, DNA was extracted, and HBV DNA in the intracellular viral capsid was measured by real-time fluorescence quantitative PCR. The inhibition rate was calculated based on the Ct value, and the EC50 value was calculated by the four-parameter method.
smiles,measurement,setting,value
"Cc1c(C(=O)Nc2ccc(F)c(C#N)c2)c(C)n(C)c1C(=O)C(=O)NC(C)(C)C [Example 13, 5-(2-(tert-butylamino)-2-oxoacetyl)-N-(3-cyano-4-fluorophenyl)-1,2,4-trimethyl-1H-pyrrole-3-carboxamide]",Liver AUC(0-6 h),"[1]; 0.25 h, 1 h, 6 h",5834 ng/g
same,Plasma AUC(0-6 h),"[1]; blood at 0.25 h, 1 h, 6 h",1759 ng/mL
same,Kp,"[1]; mouse, liver/blood, AUC(0-6 h), read-out: Liver to blood ratio",3.32
same,EC50,HBV DNA in HepAD38 cells,< 10 nM
